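Step 1: Grow cells in 96-well plates. Step 2: Expose to compound for 48 hours at 5 concentrations. Step 3: Interpolate endpoints linearly; if unreached, use highest concentration. GI50: concentration for 50% inhibition of growth. TGI marks complete inhibition of growth.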
Assays:
Assay in all cases: DTP human tumour cell line panel, 48 h
[1] = tested on: COLO 205 colon
[2] = tested on: TK-10 renal
[3] = tested on: DLD-1 colon
[4] = tested on: DMS 114 small cell lung
[5] = tested on: K-562 leukemia
[6] = tested on: SK-MEL-5 melanoma
[7] = tested on: M19-MEL melanoma
[8] = tested on: UACC-257 melanoma
[9] = tested on: UO-31 renal
[10] = tested on: U251 CNS
[11] = tested on: HT29 colon
[12] = tested on: NCI-H226 lung
[13] = tested on: SN12C renal
[14] = tested on: SNB-19 CNS
[15] = tested on: A498 renal
[16] = tested on: SW-620 colon
[17] = tested on: HCC-2998 colon
[18] = tested on: OVCAR-5 ovarian
[19] = tested on: HL-60(TB) leukemia
[20] = tested on: EKVX NSCLC
[21] = tested on: NCI-H460 lung
[22] = tested on: 786-0 renal
[23] = tested on: ACHN renal
[24] = tested on: SF-268 CNS
[25] = tested on: LOX IMVI melanoma
[26] = tested on: MOLT-4 leukemia
[27] = tested on: OVCAR-4 ovarian
[28] = tested on: A549 NSCLC
[29] = tested on: OVCAR-8 ovarian
[30] = tested on: LXFL 529 NSCLC
[31] = tested on: HCT-15 colon
[32] = tested on: HCT-116 colon
[33] = tested on: SK-MEL-28 melanoma
[34] = tested on: DMS 273 small cell lung
[35] = tested on: RXF 393 renal
[36] = tested on: SF-295 CNS
[37] = tested on: XF 498 CNS
[38] = tested on: RPMI-8226 leukemia
[39] = tested on: NCI-H23 lung
[40] = tested on: IGROV1 ovarian
[41] = tested on: CCRF-CEM leukemia
[42] = tested on: KM12 colon
[43] = tested on: OVCAR-3 ovarian
[44] = tested on: MALME-3M melanoma
[45] = tested on: KM20L2 colon
[46] = tested on: HOP-62 NSCLC
[47] = tested on: SR leukemia
[48] = tested on: M14 melanoma
[49] = tested on: SK-OV-3 ovarian
[50] = tested on: SNB-78 CNS
[51] = tested on: NCI-H522 lung
[52] = tested on: HOP-92 NSCLC
[53] = tested on: SNB-75 CNS
[54] = tested on: SK-MEL-2 melanoma
[55] = tested on: UACC-62 melanoma
[56] = tested on: T-47D breast
[57] = tested on: NCI/ADR-RES ovarian
[58] = tested on: MCF7 breast
[59] = tested on: MDA-N
[60] = tested on: MDA-MB-231 breast
[61] = tested on: SF-539 CNS
[62] = tested on: BT-549 breast
[63] = tested on: PC-3 prostate
[64] = tested on: DU-145 prostate
[65] = tested on: MDA-MB-435
[66] = tested on: CAKI-1 renal
[67] = tested on: HS 578T breast

## Cc1ccc([N+]2=NC(c3ccccc3)=NN(c3ccccc3)C2)cc1
[1]
  TGI: > 100 µM
[2]
  TGI: > 100 µM
[3]
  TGI: > 100 µM
[4]
  TGI: > 100 µM
[5]
  TGI: > 100 µM
[6]
  TGI: 73.6 µM
[7]
  TGI: > 100 µM
[8]
  TGI: > 100 µM
[9]
  TGI: > 100 µM
[10]
  TGI: > 100 µM
[11]
  TGI: > 100 µM
[12]
  TGI: > 100 µM
[13]
  TGI: > 100 µM
[14]
  TGI: > 100 µM
[15]
  TGI: > 100 µM
[16]
  TGI: > 100 µM
[17]
  TGI: > 100 µM
[18]
  TGI: > 100 µM
[19]
  TGI: > 100 µM
[20]
  TGI: > 100 µM
[21]
  TGI: > 100 µM
[22]
  TGI: > 100 µM
[23]
  TGI: > 100 µM
[24]
  TGI: > 100 µM
[25]
  TGI: > 100 µM
[26]
  TGI: > 100 µM
[27]
  TGI: > 100 µM
[28]
  TGI: > 100 µM
[29]
  TGI: > 100 µM
[30]
  TGI: > 100 µM
[31]
  TGI: > 100 µM
[32]
  TGI: > 100 µM
[33]
  TGI: > 100 µM
[34]
  TGI: > 100 µM
[35]
  TGI: > 100 µM
[36]
  TGI: > 100 µM
[37]
  TGI: > 100 µM
[38]
  TGI: > 100 µM
[39]
  TGI: > 100 µM
[40]
  TGI: > 100 µM
[41]
  TGI: 79.9 µM
[42]
  TGI: > 100 µM
[43]
  TGI: > 100 µM
[44]
  TGI: > 100 µM
[45]
  TGI: > 100 µM
[46]
  TGI: > 100 µM
[47]
  TGI: > 100 µM

## CC(=O)[O][Hg][c]1s[c]([Hg][O]C(C)=O)[c]([Hg][O]C(C)=O)[c]1[Hg][O]C(C)=O
[48]
  GI50: 1.98 µM
  TGI: 14 µM
[1]
  GI50: 15.9 µM
  TGI: 38.6 µM
[49]
  GI50: 2.34 µM
  TGI: 9.2 µM
[5]
  GI50: 1.3 µM
  TGI: 18.8 µM
[6]
  GI50: 1.24 µM
  TGI: 3.12 µM
[7]
  GI50: 3.99 µM
  TGI: > 100 µM
[9]
  GI50: 4.61 µM
[11]
  GI50: 19.5 µM
  TGI: > 100 µM
[50]
  GI50: 1.42 µM
[12]
  GI50: > 100 µM
  TGI: > 100 µM
[51]
  GI50: 2.54 µM
  TGI: > 100 µM
[13]
  GI50: 8.33 µM
  TGI: > 100 µM
[14]
  GI50: 4.27 µM
  TGI: 16.3 µM
[15]
  GI50: 20.1 µM
  TGI: 35.1 µM
[16]
  GI50: 6.51 µM
[17]
  GI50: 14.6 µM
  TGI: 40.1 µM
[19]
  GI50: 5.12 µM
  TGI: > 100 µM
[21]
  GI50: 2.35 µM
  TGI: > 100 µM
[22]
  GI50: 2.48 µM
  TGI: 41.8 µM
[23]
  GI50: 19.3 µM
  TGI: > 100 µM
[24]
  GI50: 5.92 µM
[26]
  GI50: 2.26 µM
  TGI: 17.5 µM
[27]
  GI50: 12.7 µM
  TGI: 87.7 µM
[28]
  GI50: 55.8 µM
  TGI: > 100 µM
[52]
  GI50: 2.92 µM
  TGI: 5.88 µM
[29]
  GI50: 2.93 µM
  TGI: > 100 µM
[30]
  GI50: 1.79 µM
  TGI: 9.72 µM
[53]
  GI50: 4.91 µM
  TGI: 25.4 µM
[31]
  GI50: 4.51 µM
  TGI: 30.4 µM
[32]
  GI50: 7.12 µM
  TGI: > 100 µM
[33]
  GI50: 1.18 µM
  TGI: 5.52 µM
[34]
  GI50: 3.6 µM
  TGI: > 100 µM
[35]
  GI50: 13.1 µM
  TGI: 28.6 µM
[36]
  GI50: 13.5 µM
  TGI: 40.1 µM
[38]
  GI50: 7.54 µM
  TGI: > 100 µM
[54]
  GI50: 2.19 µM
[39]
  GI50: 19.7 µM
  TGI: > 100 µM
[40]
  GI50: 3.61 µM
  TGI: 23.4 µM
[41]
  GI50: 1.18 µM
  TGI: > 100 µM
[42]
  GI50: 22.6 µM
  TGI: > 100 µM
[55]
  GI50: 6.47 µM
  TGI: 27.4 µM
[43]
  GI50: 21.4 µM
  TGI: > 100 µM
[44]
  GI50: 3.16 µM
  TGI: 17.2 µM
[45]
  GI50: 14.3 µM
  TGI: 37.3 µM
[46]
  GI50: 4.91 µM
  TGI: 16.5 µM
[47]
  GI50: 2.27 µM
  TGI: > 100 µM

## NC1=C(O)C(=O)C(c2c[nH]c3ccc(OCc4ccccc4)cc23)O1 (centres undefined)
[48]
  TGI: > 100 µM
[1]
  TGI: > 100 µM
[56]
  TGI: > 100 µM
[57]
  TGI: > 100 µM
[2]
  TGI: > 100 µM
[49]
  TGI: > 100 µM
[5]
  TGI: > 100 µM
[6]
  TGI: > 100 µM
[8]
  TGI: > 100 µM
[9]
  TGI: > 100 µM
[58]
  TGI: > 100 µM
[10]
  TGI: > 100 µM
[11]
  TGI: > 100 µM
[12]
  TGI: > 100 µM
[51]
  TGI: > 100 µM
[13]
  TGI: > 100 µM
[59]
  TGI: > 100 µM
[14]
  TGI: > 100 µM
[60]
  TGI: > 100 µM
[15]
  TGI: > 100 µM
[16]
  TGI: > 100 µM
[17]
  TGI: > 76.3 µM
[18]
  TGI: > 100 µM
[19]
  TGI: > 100 µM
[20]
  TGI: > 100 µM
[21]
  TGI: > 100 µM
[22]
  TGI: > 100 µM
[23]
  TGI: > 100 µM
[24]
  TGI: > 100 µM
[25]
  TGI: > 100 µM
[26]
  TGI: > 100 µM
[27]
  TGI: > 100 µM
[28]
  TGI: > 100 µM
[52]
  TGI: > 100 µM
[29]
  TGI: > 100 µM
[53]
  TGI: > 91.3 µM
[31]
  TGI: > 100 µM
[32]
  TGI: > 100 µM
[61]
  TGI: > 100 µM
[33]
  TGI: > 100 µM
[62]
  TGI: > 100 µM
[63]
  TGI: > 100 µM
[64]
  TGI: > 100 µM
[35]
  TGI: > 100 µM
[36]
  TGI: > 100 µM
[65]
  TGI: > 100 µM
[38]
  TGI: > 100 µM
[54]
  TGI: > 100 µM
[39]
  TGI: > 100 µM
[40]
  TGI: > 100 µM
[41]
  GI50: > 100 µM
  TGI: > 100 µM
[42]
  TGI: > 100 µM
[55]
  TGI: > 100 µM
[43]
  TGI: > 100 µM
[44]
  TGI: > 100 µM
[66]
  TGI: > 100 µM
[67]
  TGI: > 100 µM
[46]
  TGI: > 100 µM
[47]
  TGI: > 100 µM

— PubChem BioAssay (NCI)
